Measurements from ChEMBL document CHEMBL1139320, “PEG-immobilization of cardol and soluble polymer-supported synthesis of some cardol-coumarin derivatives: preliminary evaluation of their inhibitory activity on mushroom tyrosinase” (Bioorg Med Chem Lett, 2009).

Biological target: T1, Tyrosinase (Agaricus bisporus, UniProt O42713)
T1 sequence (O42713 whole entry): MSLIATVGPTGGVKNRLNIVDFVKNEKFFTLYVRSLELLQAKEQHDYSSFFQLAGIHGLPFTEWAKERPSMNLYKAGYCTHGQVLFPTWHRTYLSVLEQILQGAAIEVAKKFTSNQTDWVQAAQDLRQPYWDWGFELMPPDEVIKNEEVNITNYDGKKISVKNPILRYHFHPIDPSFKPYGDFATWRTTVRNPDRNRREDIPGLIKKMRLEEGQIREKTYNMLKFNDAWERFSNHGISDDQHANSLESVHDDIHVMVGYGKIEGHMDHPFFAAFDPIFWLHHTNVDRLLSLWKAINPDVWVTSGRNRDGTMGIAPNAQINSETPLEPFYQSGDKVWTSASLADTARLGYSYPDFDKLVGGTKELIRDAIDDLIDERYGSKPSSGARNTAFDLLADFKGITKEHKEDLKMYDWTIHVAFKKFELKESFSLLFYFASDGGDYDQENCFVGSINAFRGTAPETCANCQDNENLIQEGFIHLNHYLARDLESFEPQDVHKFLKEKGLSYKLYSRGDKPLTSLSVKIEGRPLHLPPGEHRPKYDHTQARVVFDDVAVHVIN
Description: Inhibition of mushroom tyrosine kinase assessed as oxidation of 0.25 mM L-3,4-dihydroxyphenylalanine

| Compound | IC50 [µM] |
| --- | --- |
| CCCCCCc1ccc(O)cc1O [HEXYLRESORCINOL] | 0.98 |
| Oc1cccc(O)c1 [RESORCINOL] | 1440 |
